Experimental data as given in patent publication US10782295B2, “Cysteine-reactive ligand discovery in proteomes” (THE SCRIPPS RESEARCH INSTITUTE, priority 2013, dated 2020).
pIC50: −log10 of the molar value.

How the values were obtained:
[1] = target: ZAK (Homo sapiens, UniProt Q9NYL2); assay: competitive isoTOP-ABPP, MDA-MB-231 soluble proteome; assay type: binding; design: directly in native proteomes; endogenous in cells; host or cells: MDA-MB-231; settings: 60 min; for R value (isoTOP-ABPP ratio heavy/light) for IA-labeled cysteine of ZAK: 100 μM LDE, peptide FDDLQFFENC*GGGSFGSVYR
Procedure: (§1) Here, we envisioned that isoTOP-ABPP could be advanced to discover and quantify reactions between cysteines in proteomes and any electrophilic compound. In this advanced, ‘competitive’ version of isoTOP-ABPP (FIG. 1a), a proteome is treated with an electrophile (experimental sample) or DMSO (control sample). Both proteomic samples are then labeled with the IA probe and conjugated by CuAAC to light and heavy azide-biotin tags, respectively. The light and heavy samples are then mixed and subjected to our described isoTOP-ABPP protocol for enrichment, identification, and quantification of IA-labeled cysteines^30. Electrophile-modified cysteines are quantified by measuring the MS1 chromatographic peak ratios (R values) for heavy (DMSO-treated) over light (electrophile-treated) samples, with higher R values reflecting greater sensitivity to the electrophile. In this format, competitive isoTOP-ABPP can assay electrophiles against 1000+ cysteines in parallel directly in native proteomes without requiring any chemical modification to the electrophiles themselves.
(§2) Competitive isoTOP-ABPP experiments were performed in quadruplicate using the soluble proteome of the human breast cancer cell line MDA-MB-231 cell line. Proteomes were treated with 100 μM HNE, 15d-PGJ2, or 2-HD, for 60 minutes, followed by the IA-probe (100 μM, 60 min) A total of ˜1400 cysteine reactivities were quantified across the aggregate data set, with at least 900 cysteine reactivities quantified for each LDE (FIG. 2a) more than 750 of which were quantified for all the three electrophiles.
(§3) The MDA-MB-231 cell proteome was treated with varying concentrations of HNE (5, 10, 50, 100 and 500 μM) for 60 min and then the IA-labeling profile of each reaction was quantitatively compared to a DMSO-control sample by isoTOP-ABPP.
(§4) HNE was purchased from EMD biosciences, 15d-PGJ2 was purchased from Cayman Chemicals and 2-HD was purchased from Santa Cruz Biotechnology. Proteome samples were diluted to a 4 mg protein/mL solution in PBS. For each profiling experiment, one aliquot of the proteome sample (0.5 mL) was treated with 100 μM of LDE using 5 μL of a 10 mM stock and the other aliquot was treated with 5 μL of either ethanol (for HNE and 15d-PGJ2) or DMSO (for 2-HD) as control. For the concentration-dependent profiling experiments using HNE, aliquots of the proteomes (0.5 mL each) were treated with 5, 10, 50, 100 and 500 μM of HNE using 5 μL of 0.5, 1.0, 5, 10 and 50 mM of stock solution, respectively. After 60 minutes of treatment at room temperature, both the LDE-treated and control aliquots were passed through a NAP-5 Sephadex column (GE healthcare) to remove any unreacted LDE. The volume of each aliquot was increased to 1 mL with the concentration at 2 mg/mL after this step. […]

[2] = competitive isoTOP-ABPP, proteome-wide cysteine reactivity; assay type: binding, human; settings: for proteome reactivity profile, high sensitivity (R>5) cysteine targets: 100 μM LDE, 60 min
Procedure: as §1, §2, §3
By combining the R values at all 5 HNE concentrations, we could extrapolate IC50 values for […] of IA probe-labeling for ˜700 of the 1100 cysteines (FIG. 3a).
as §4, with “respectively.” for “respectively. After 60 minutes of treatment at room temperature, both the LDE-treated and control aliquots were passed through a NAP-5 Sephadex column (GE healthcare) to remove any unreacted LDE. The volume of each aliquot was increased to 1 mL with the concentration at 2 mg/mL after this step.”

Chain of ZAK (Q9NYL2 whole entry): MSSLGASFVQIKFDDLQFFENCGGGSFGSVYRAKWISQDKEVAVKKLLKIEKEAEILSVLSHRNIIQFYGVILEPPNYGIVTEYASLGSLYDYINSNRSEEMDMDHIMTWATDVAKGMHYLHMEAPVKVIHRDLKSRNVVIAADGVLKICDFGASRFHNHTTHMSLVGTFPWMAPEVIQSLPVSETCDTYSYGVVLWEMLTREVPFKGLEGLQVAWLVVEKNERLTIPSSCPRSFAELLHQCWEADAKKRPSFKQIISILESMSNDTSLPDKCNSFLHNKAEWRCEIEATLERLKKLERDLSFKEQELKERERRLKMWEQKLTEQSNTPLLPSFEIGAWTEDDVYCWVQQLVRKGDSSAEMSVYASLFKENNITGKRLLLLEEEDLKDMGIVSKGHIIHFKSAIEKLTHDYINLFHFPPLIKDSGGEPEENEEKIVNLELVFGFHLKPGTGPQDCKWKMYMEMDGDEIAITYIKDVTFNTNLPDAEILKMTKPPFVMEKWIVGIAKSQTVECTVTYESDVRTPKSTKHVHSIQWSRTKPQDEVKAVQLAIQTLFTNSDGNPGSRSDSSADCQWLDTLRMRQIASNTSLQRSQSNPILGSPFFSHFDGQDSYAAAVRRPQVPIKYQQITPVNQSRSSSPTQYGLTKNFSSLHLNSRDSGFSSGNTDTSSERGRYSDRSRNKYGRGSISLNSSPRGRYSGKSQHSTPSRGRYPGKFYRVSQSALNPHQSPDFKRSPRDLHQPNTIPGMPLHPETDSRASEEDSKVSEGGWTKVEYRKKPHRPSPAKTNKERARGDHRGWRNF

## CCCCCCCCCCCCC/C=C/C=O [2-HD, 2-trans-hexadecenal]
[1]
  R value (isoTOP-ABPP ratio heavy/light) for IA-labeled cysteine of ZAK: 1.05
[2]
  proteome reactivity profile, high sensitivity (R>5) cysteine targets: no detectable high sensitivity (R>5) targets

## CCCCCC(O)/C=C/C=O (centres unmarked) [4-HNE, 4-Hydroxynonenal]
[1]
  R value (isoTOP-ABPP ratio heavy/light) for IA-labeled cysteine of ZAK: >15
[1]; 100 μM
  blockade of IA-probe labeling of Cys22 of ZAK: completely blocked
[2]
  proteome reactivity profile, high sensitivity (R>5) cysteine targets: targeting several cysteines in the proteome
[2]; ~700 of 1100 cysteines, 5 HNE concentrations, read-out: IC50 for blockade of IA probe-labeling, vast majority of cysteines
  pIC50: < 4.00

## CCCCC/C=C/C=C1/C(=O)C=C[C@@H]1C/C=C\CCCC(=O)O [PGJ2, 15-deoxy-Δ12,14-prostaglandin J2]
[1]
  R value (isoTOP-ABPP ratio heavy/light) for IA-labeled cysteine of ZAK: 4.24
[2]
  proteome reactivity profile, high sensitivity (R>5) cysteine targets: targeting several cysteines in the proteome
